The results in this text go back to PMC5059921, “Chalepin: isolated from Ruta angustifolia L. Pers induces mitochondrial mediated apoptosis in lung carcinoma cells” (BMC Complementary and Alternative Medicine, 2016).

Experiment [1] has as its system A549 cells. Nature of the experiment: Apoptosis detection by Annexin V-FITC/PI staining (flow cytometry). In kind it is cell-based, human. To be noted: incubation time not stated. How it is done: FITC annexin V apoptosis detection kit (BD) was used to detect apoptosis. Cells were seeded in tissue culture dishes (5000-7000 cells/dish) and allowed to adhere overnight. Next, the cells were treated with various concentrations of chalepin for 48 and 72 h. The cells were harvested, washed, and resuspended in 1x binding buffer according to the manual provided in the kit. In the next step, the cells were stained in the ratio of per 100,000 cells; staining of cells with 5 μL of FITC-annexin V and 5 μL of propidium iodide was done for 15 min. Then, 200 μL of 1× binding buffer was added to each sample. Unstained and single-stained untreated cells were also included as controls. A minimum number of 10,000 events was acquired for each replicate using Accuri C6 flow cytometer. A quadrant statistic was used to measure the population of viable, early apoptotic, late apoptotic and secondary necrotic cells. The determination betweent these different populations were obtained by estimating quantitatively the cells that were AnnexinV/PI stained.

For experiment [2], the system named is A549 cells. Nature of the experiment: Mitochondrial membrane potential assay (JC-1, flow cytometry). In kind it is cell-based. To be noted: Homo sapiens, A549, 48 h, read-out: JC-1 dot plot: Viable. How it is done:
A lipophilic and cell-permeable fluorochrome JC-1 (5,5’,6,6’-tetrachloro-1,1’,3,3’-tetraethyl benzimidazolyl carbocyanine iodide), was used to measure mitochondrial membrane potential (Δψm) according to the manufacturer’s instructions (BD MitoScreen Kit). The cells (1×10^6) were seeded in tissue culture plates and were treated with 18, 27, 36, and 45 μg/ml of chalepin for 48 h incubation. The cells were then harvested, washed with PBS twice and incubated with JC-1 dye for 15 mins at 37°C. At the end of the incubation, the cells were washed and resuspended with 500 μl of 1x assay buffer (provided in the kit). The intracellular fluorescence signals of JC-1 in the cells were then measured with Accuri C6 flow cytometer. Approximately 10,000 events were recorded per analysis. In healthy cells, JC-1 accumulates as aggregates in the mitochondria and emits red fluorescence. In cells, which have undergone apoptosis, JC-1 remains in monomeric form in the cytoplasm and emits green fluorescence. The red and green fluorescence were detected at FL-2 and FL-1 channels respectively in the flow cytometer. Ratio of mean fluorescence intensity between the FL1 and FL2 channels were calculated and this is used to determine the changes in the mitochondrial membrane potential. The results were analysed by calculating the ratio of JC-1 dimers to JC-1 monomers. A […] ratio indicated a […] membrane depolarization of mitochondria in cells (BD MitoScreen Flow Cytometry Mitochondrial Membrane Potential Detection Kit Instruction Manual). Cells that was untreated in 0.5 % DMSO acted as the control.
JC-1 (5,5’,6,6’-tetrachloro-1,1’,3,3’-tetraethyl benzimidazolyl carbocyanine iodide) mitochondrial membrane potential assay kit by Abcam was used to stain the A549 cells to view the mitochondrial membrane potential (Δψm) changes in cells. Prior to the JC-1 staining initiation, 1x dilution buffer were prepared by adding 10 mL 10× dilution buffer to 90 mL deionized water. The solution was mixed gently and throughly. JC-1 stock (1mM) was diluted to 20 μM working JC-1 solution. This was done by adding 200 μl of JC-1 stock solution into 10 mL of 1× dilution buffer. The cells (1×10^6) were seeded in tissue culture plates and were treated with 18, 27, 36, and 45 μg/ml of chalepin for 48 and 72 h incubation. The cells were then harvested, washed with PBS twice and incubated with JC-1 dye for 20 mins at 37 °C. At the end of the incubation, the cells were washed and resuspended with 1000 μl of 1× dilution buffer. The cells were viewed using a fluorescence microscope at an excitation wavelength of Ex475 ± 20nm and emission wavelength of Em530 ± 15 nm and 590 ± 17.5 nm. The images were captured and recorded.

For another experiment, the system named is caspase 3 in A549 cells. Nature of the experiment: Caspase-3 activity (CaspILLUME, flow cytometry). In kind it is cell-based, human. As to conditions: for active caspase 3, V1-R (apoptotic population): 45 ug/ml; for fold increase of caspase 3 activity vs untreated control: 45 μg/ml. How it is done:
Caspase activity assays were performed according to the instructions in the manual (CaspILLUME, Genetex). Cells were seeded at a density of 1×10^6 cells per culture dish. After being subjected to treatment for 48 and 72 h, the cells were detached with accutase, washed, and resuspended in PBS. Next, 300 μL of each sample was aliquoted into centrifuge tubes, after which 1 μL of fluorescent substrate (FITC-DEVD-FMK for caspase 3 and FITC-LEHD-FMK for caspase 9 activity) was added to each tube and incubated for 1 h at 37°C incubator. At the end of the incubation period, the cells were centrifuged at 3000 rpm for 5 min and the supernatant was removed. After that, the cells were resuspended in 0.5 mL wash buffer (provided in the kit) and centrifuged at 3000 rpm for 5 min. This step was repeated before performing the analysis with flow cytometer (Accuri C6) and a minimum of 10,000 events were acquired for each replicate.

In experiment [3] the test system is MRC5 (human normal lung fibroblasts). In words: SRB in vitro cytotoxicity screening (toxicity to normal cells). Format: cell-based. As to conditions: Homo sapiens, MRC5, isolated compounds, 72 h, read-out: IC50 in μg/ml (μM) (MRC5) 72 h (converted). The procedure:
The human cell lines A549 (lung cancer) and Ca Ski (cervical cancer) were cultured as monolayer in RPMI 1640 growth media whereas HCT-116 (colon cancer) and MRC5 (human normal lung fibroblasts) was cultured in McCoy’s 5A and EMEM medium, respectively. All cells were purchased from the […] (ATCC, USA). All the media were supplemented with 10 % v/v foetal bovine serum (FBS), 100 μg/mL penicillin/streptomycin, and 50 μg/mL amphotericin B. The cells were cultured in a 5 % CO2 incubator at 37 °C.
The monolayer cell culture was detached using accutase and the cell count was adjusted to 2.5 x10^5 -3.0 x10^5 cells/mL using medium containing feotal bovine serum. The cells were then plated into 96 wells with a cell density of 5000-7000 cells/well and then incubated for 24 h to allow adherence of cells to the base of well of the plates. The media was then removed and 200 μl of fresh media containing different concentration of various extracts or isolated compounds were added. Cisplatin was used as the positive control. The plates were incubated for 24, 48 and 72 h at 37 °C and 5 % CO2. The cytotoxicity of the extracts and isolated compounds were screened using the […] (SRB) assay. This assay was first described by Houghton in 2007 [8]. The incubation was halted by gentle addition of 50 μl ice cold 4 % trichloroacetic acid (TCA) to each well and the plates were incubated at 4 °C for 1 h. Then, the supernatant was discarded and the plates were washed with distilled water for 5 times and then air dried. SRB dye, 50 μl, (0.4 % w/v) was added into each well and the treated cells and control were incubated at room temperature for 30 min. The unbound dye was removed by rapid washing four times with 1 % acetic acid. The plates were then air dried and 100 μl of tris base (10 mM unbuffered, pH 10.5) was added and the plates were shaken at 500 rpm for 5 min to solublize the bound SRB stain. The plates were then read with an ELISA reader (Synergy H1 Hybrid) at an absorbance of 492 nm.

Like-named read-outs stand apart in the source and are kept apart here.

As to `C=CC(C)(C)c1cc2cc3c(cc2oc1=O)O[C@H](C(C)(C)O)C3` [Chalepin, chalepin], the “Annexin V positive cells (early and late apoptotic)” value in the experiment with A549 cells [1] (A549, 9 μg/ml) amounted to 7.27 ± 0.16%. The “Annexin V positive cells (early and late apoptotic)” value with A549 cells [1] (A549, 45 μg/ml) worked out at 20.6 ± 0.53%. In the experiment on A549 cells [2], the viability at 18 µg/mL stood at 78.3%, the viability at 27 µg/mL turned out to be 68.2%, the viability at 36 µg/mL was 54.2% and the viability at 45 µg/mL was determined as 52.9%. For the same compound, in the experiment with caspase 3 in A549 cells (A549, 48 h), the “active caspase 3, V1-R (apoptotic population)” value was 26.40 ± 0.79% and the “fold increase of caspase 3 activity vs untreated control” value is 9.32 fold. In the experiment on caspase 3 in A549 cells (A549, 72 h), the “active caspase 3, V1-R (apoptotic population)” value is 49.07 ± 0.63% and the “fold increase of caspase 3 activity vs untreated control” value worked out at 8.71 fold. In addition, in experiment [3] (value in brackets), the IC50 was 74.5 µM. Moreover, the IC50 in experiment [3] was 23.4 ± 0.6 µg/mL.
